What was measured:
Candida albicans = experiment: Quantification of inhibition of the budded-to-hyphal-form transition and synergy assay in 10% serum media; format: cell-based; settings: 37° C., synergy assay: two molecules (100 μM) added together, normalized to % hyphae formed when no molecule was added
Procedure: Cultures of Candida albicans were grown as described in Toenjes K. A. et al. (Antimicrobial Agents and Chemotherapy, 49(3):963-972, 2005). To induce hyphal growth, stationary-phase cultures were diluted into 5 ml of either YPD (1% yeast extract, 2% peptone, and 2% dextrose) plus 10% (vol/vol) fetal calf serum, Spider medium, Lee's medium (Lee, K. et al., Sabouraudia, 13:148-153, 1975), or M199 pH 8 medium (Sigma-Aldrich, St. Louis, Mo.) and grown at 37° C. with shaking at 250 rpm.
Quantification of inhibition of the budded-to-hyphal-form transition was accomplished by counting the numbers of individual budded cells versus the number of hyphae in the population. More than 100 cells were counted for each assay in duplicate and all assays were repeated four times. Individual hyphae were counted as one cell, although the hyphae usually consisted of multiple individual hyphal cells. The percentage of hyphae reported was normalized to the percentage of hyphae formed when no molecule was added.
For the synergy assay, two different molecules (100 μM) were added together and the assay was performed in 10% serum media to induce hyphal formation.

tumor = settings: cited from earlier work

SMILES	% hyphae in 10% serum (Candida albicans) [%]	anti-tumor activity (tumor)
CN1CCN(C2=Nc3cc(Cl)ccc3Nc3ccccc32)CC1 [Clozapine, 8-Chloro-11-(4-methyl-1-piperazinyl)-5H-dibenzo[b,e][1,4]-diazepine]	33	
O=C(Nc1ccccc1)c1cc([N+](=O)[O-])ccc1Cl [GW9662, 2-Chloro-5-nitro-N-phenylbenzamide]	59	
CCOC(=O)C1=C(N)Oc2ccc(Br)cc2C1C(C#N)C(=O)OCC (centres unmarked) [HA14-1, Ethyl[2-amino-6-bromo-4-(1-cyano-2-ethoxy-2-oxoethyl)]-4H-chromene-3-carboxylate]	34	
CCC(C)C(COC(Cc1ccccc1)C(=O)NC(CCS(C)(=O)=O)C(=O)OC(C)C)NCC(N)CS [L-744,832, (2S)-2-[[(2S)-2-[(2S,3S)-2-[(2R)-2-Amino-3-mercaptopropyl]amino]-3-methylpentyl]oxy]-1-oxo-3-phenylpropyl]amino]-4-(methylsulfonyl)-butanoic Acid 1-Methylethyl Ester]		potent anti-tumor activity
OCc1ccc(-c2nn(Cc3ccccc3)c3ccccc23)o1 [YC-1, 3-(5′-Hydroxymethyl-2′-furyl)-1-benzylindazole]		potent anti-tumor activity

— US20060194769A1, “Small molecules that reduce fungal growth” (University of Vermont and State Agricultural College, priority 2005, published 2006)
